Measurements: US4725597A, “Bis(piperazinyl or homopiperazinyl)alkanes” (Boehringer Ingelheim Ltd., priority 1984, dated 1988)
Structures can show the parent of a compound that is named as a salt.

Tests used:
[1] = system: rat peritoneal mast cells; assay: Inhibition of histamine release from rat peritoneal mast cells, Procedure B; format: cell-based; conditions: Mast cell, 1 h, sheep anti-rat IgE or ovalbumin, 37° C., 60 minutes, (d) No response detected at highest dose indicated, read-out: In Vitro Inhibition of Histamine Release IC50, Procedure B
Experimental: B. Procedure for Determining Inhibition of Histamine Release from Rat Peritoneal Mast Cells 1. Harvest of Peritoneal Mast Cells: After the rats are sacrificed with ether, 20 ml of Minimum Essential Medium (MEM) containing 20 units/ml heparin is injected into the peritoneum. The abdomen is massaged for one minute and the lavage fluid collected. The peritoneal cells are centrifuged at 1800 rpm for 8 minutes in cold. After two washes with Tris A buffer, the cells are resuspended in Tris ACM buffer at 2-4×10^6 cells/ml. 2. Reaction Mixture: The reaction is carried out in 12×75 mm plastic tubes at a total volume of 1.25 ml. The reaction mixture includes 0.5 ml (10-1000 μg) sheep anti-rat IgE or ovalbumin, 0.2 ml of the test compound in water at concentrations ranging from 10-1000 μM, […] phosphatidylserine solution (20-60 μg to each tube), and 0.5 ml of cell suspension. The reaction mixture is incubated in a 37° C. shaking water bath for 60 minutes. Upon completion of the reaction, the tubes are centrifuged and the supernatants collected. The protein is removed from the supernatants by precipitation with 0.2 ml of 8% perchloric acid. 3. Histamine Assay: Histamine release is measured by the automated fluorometric method of Siraganian, supra. The concentration which causes a 50% inhibition (IC50) of histamine release is computed as in Part A.

[2] = system: guinea pig basophils; assay: Inhibition of histamine release from guinea pig basophils, Procedure C; format: cell-based; conditions: Cavia porcellus, 1 h, ovalbumin-sensitized, 37° C., 60 minutes, read-out: In Vitro Inhibition of Histamine Release IC50, Procedure C
Experimental: C. Procedure for Determining Inhibition of Histamine Release from Guinea Pig Basophils 1. In Vivo Sensitization: Male Hartley guinea pigs (200-300 gms) are immunized on day 0 with two 0.05 ml intradermal injections of 200 μg ovalbumin. Sensitized basophils are available between days 13-25 post-sensitization. This mode of sensitization favors IgE response. 2. Separation of Leukocytes: The method of Lett-Brown et al., Int. Arch. Allergy, Appl. Immun. 64, 241 (1981) is used. Animals are anesthetized with ether and are bled via cardiac puncture with plastic syringes containing sufficient EDTA to provide a final concentration of 10 mM. One part of 3% gelatin in saline at 37° C. is mixed with two parts of blood in a 16×150 mm tube. The cells are allowed to sediment at a 30° angle for 45 minutes in a 37° C. water bath. The leukocyte-rich plasma is collected and centrifuged at 150×g for 30 minutes at room temperature. The pelleted cells are washed in Hepes-buffered saline (HG) containing 4 mM EDTA and resuspended in Hepes-buffered saline containing Mg^++ and Ca^++ (HGCM) at 4-5×10^6 cells/ml. 3. Reaction Mixture: The reaction is carried out in 12×75 mm plastic tubes and a total volume of 1.2 ml which includes 0.5 ml of antigen, 0.2 ml of drug solution at concentrations ranging from 10-1000 μM and 0.5 ml of prewashed cell suspension. The reaction mixture is incubated in a 37° C. shaking water bath for 60 minutes. Upon completion of the reaction, the tubes are centrifuged and the supernatants collected. The protein is removed from the supernatants by precipitation with 0.2 ml of 8% perchloric acid. 4. Histamine Assay: Histamine release is measured by the automated fluorometric method of Siraganian, supra. The concentration which causes a 50 percent inhibition of Histamine release is computed as in Part A.

[3] = system: human leukocytes (basophils); assay: Inhibition of histamine release from human leukocytes (basophils), Procedure A; format: cell-based; conditions: Leukocyte, 1 h, rabbit anti-human IgE, 37° C., 60 minutes, (d) No response detected at highest dose indicated, read-out: In Vitro Inhibition of Histamine Release IC50, Procedure A
Experimental: A. Procedure for Determining Inhibition of Histamine Release from Human Leukocytes (Basophils) 1. Separation of Leukocytes: A modification of the method of L. Lichtenstein and A. Osler, J. Exp. Med. 120, 507 (1964) is used. Heparinized human blood (80-100 ml) is mixed with 20 ml of saline (0.2%) containing 0.6 gm of dextrose and 1.2 gm dextran in propylene centrifuge tubes. The mixture is kept at ambient temperature for 60-90 minutes to allow the separation of erythrocytes from the platelet-leukocyte-rich supernate. The supernate is removed and centrifuged for 8 minutes at 110×g in cold. The leukocyte pellet is washed twice with Tris buffer and finally suspended in 150-180 ml Tris-ACM buffer at 1-2×10^6 cells/ml. 2. Reaction Mixture: The reaction is carried out in 12×75 mm plastic tubes at a total volume of […]. The reaction medium includes 0.05 ml rabbit anti-human IgE (the antigen), 0.2 ml of the test compound in water at concentrations ranging from 10-100 μM, and 0.1 ml of the leukocyte suspension. The reaction mixture is incubated in a 37° C. shaking water bath for 60 minutes. Upon completion of the reaction, the tubes are centrifuged and the supernatants collected. The protein is removed from the supernatants by precipitation with 0.2 ml of 8% perchloric acid. 3. Histamine Assay: Histamine release is measured by the automated fluorometric method of W. Siraganian and W. Hook in Chapter 102 of the Manual of Clinical Immunology, 2nd Edition, edited by R. Rose and H. Friedman, published by the American Society for Microbiology, Washington, D.C. 1980. Percent inhibition is calculated as follows: [formula] The concentration which causes a 50 percent inhibition (IC50) of histamine release is interpolated from a plot of percent inhibition versus logarithm of drug concentration.

[4] = Solubility limit; conditions: pH 7

| Structure (SMILES) | IC50 [1] [µM] | IC50 [2] [µM] | IC50 [3] [µM] | solubility [4] [mg/mL] |
| --- | --- | --- | --- | --- |
| Clc1ccc(CCN2CCN(CCCN3CCN(CCc4ccc(Cl)cc4)CC3)CC2)cc1 [Example 16, 1,3-Bis[4-(4-chlorophenethyl)-1-piperazinyl]propane] | > 100 | 12 | 3 |  |
| Cl.Cl.Cl.Cl.Clc1ccc(CCCN2CCN(CCCN3CCN(CCCc4ccc(Cl)cc4)CC3)CC2)cc1.O [Example 24, 1,3 -Bis[4-(3-{4-chlorophenyl}propyl)-1-piperazinyl]propane tetrahydrochloride monohydrate] | 2 | 8.9 | 2 | 1 |
| Clc1ccc(CN2CCCN(CCCN3CCCN(Cc4ccc(Cl)cc4)CC3)CC2)cc1 [Example 28, 1,3-Bis[4-(4-chlorobenzyl)-1-homopiperazinyl]propane tetrahydrochloride] | 9 | 2.3 | 6 |  |
